Converted amounts (≈) assume the structure as drawn.
Legend:
HEK293 = experiment: Cytotoxicity against HEK293 cells assessed as reduction in cell growth after 3 days by MTT assay; type: cell-based; settings: Homo sapiens, HEK293, 72 h
HT-29 [1] = experiment: Cytotoxicity against human HT-29 cells assessed as reduction in cell growth after 3 days by MTT assay; type: functional, cell-based; settings: HT-29, 72 h
MCF7 = experiment: Cytotoxicity against human MCF7 cells assessed as reduction in cell growth after 3 days by MTT assay; type: functional, cell-based; settings: MCF7, 72 h
[2] = Therapeutic index, ratio of IC50 for HEK293 cells to IC50 for human HT-29 cells; type: cell-based; settings: HEK293 cells versus HT-29 cells, read-out: Ratio IC50
[3] = Therapeutic index, ratio of IC50 for HEK293 cells to IC50 for human MCF7 cells; type: cell-based; settings: HEK293 cells versus MCF7 cells, read-out: Ratio IC50
HT-29 [4] = experiment: Downregulation of VEGFA-165 secretion in human HT-29 cells assessed as protein secretion levels at 3 ug/ml after 72 hrs by ELISA relative to control; type: functional
HT-29 [5] = experiment: Downregulation of VEGFA gene expression in human HT-29 cells assessed as gene expression levels at 3 ug/ml after 48 hrs by RT-qPCR analysis relative to control; type: functional
HT-29 [6] = experiment: Downregulation of TERT gene expression in human HT-29 cells assessed as gene expression levels at 3 ug/ml after 48 hrs by RT-qPCR analysis relative to control; type: functional
HT-29 [7] = experiment: Downregulation of c-Myc gene expression in human HT-29 cells assessed as gene expression levels at 3 ug/ml after 48 hrs by RT-qPCR analysis relative to control; type: functional

Row | SMILES | IC50 (HEK293) | IC50 (HT-29 [1]) | IC50 (MCF7) | selectivity ratio [2] | selectivity ratio [3] | Activity (HT-29 [4]) | Activity (HT-29 [5]) | Activity (HT-29 [6]) | Activity (HT-29 [7])
1 | COc1ccc(-c2ccccc2N)c(OC)c1 | > 100 µg/mL | 56 µg/mL (≈ 244 µM) | 56 µg/mL (≈ 244 µM) | > 2 | > 2 | – | – | – | –
2 | Oc1ccc(-c2cccc(O)c2)cc1 | 31 µg/mL (≈ 166 µM) | 3.4 µg/mL (≈ 18.3 µM) | > 100 µg/mL | 9 | 9 | 52% | 35% | 30% | 39%
3 | Nc1ccccc1-c1ccccc1O | 54.1 µg/mL (≈ 292 µM) | 44 µg/mL (≈ 238 µM) | 56 µg/mL (≈ 302 µM) | 1.2 | 1 | – | – | – | –
4 | Oc1cccc(-c2cccc(O)c2)c1 | 68 µg/mL (≈ 365 µM) | 2.5 µg/mL (≈ 13.4 µM) | 51.6 µg/mL (≈ 277 µM) | 28 | 1.3 | 50% | 5% | 29% | 16%
5 | Oc1ccccc1-c1ccccc1O | 57 µg/mL (≈ 306 µM) | 2.5 µg/mL (≈ 13.4 µM) | 60 µg/mL (≈ 322 µM) | 23 | 1 | 57% | 23% | 3% | 18%
6 | Oc1ccc(-c2ccc(O)cc2)cc1 | 5.1 µg/mL (≈ 27.4 µM) | 13.9 µg/mL (≈ 74.6 µM) | 17.8 µg/mL (≈ 95.6 µM) | 0.4 | 0.3 | – | – | – | –
7 | Nc1ccc(-c2ccc(O)cc2)cc1 | 62 µg/mL (≈ 335 µM) | 56 µg/mL (≈ 302 µM) | 49.9 µg/mL (≈ 269 µM) | 1.1 | 1.2 | – | – | – | –
8 | COc1ccc(-c2cccc(O)c2)cc1OC | 23.1 µg/mL (≈ 100 µM) | 29 µg/mL (≈ 126 µM) | 48 µg/mL (≈ 208 µM) | 0.8 | 0.5 | – | – | – | –
9 | COc1ccc(-c2ccccc2)cc1OC | 26 µg/mL (≈ 121 µM) | 41 µg/mL (≈ 191 µM) | 45 µg/mL (≈ 210 µM) | 0.6 | 0.6 | – | – | – | –
10 | Oc1cccc(-c2ccccc2)c1 | 25 µg/mL (≈ 147 µM) | 28 µg/mL (≈ 165 µM) | 27.4 µg/mL (≈ 161 µM) | 0.9 | 0.9 | – | – | – | –
11 | Nc1ccc(-c2cccc(O)c2)cc1 | 55 µg/mL (≈ 297 µM) | 49.3 µg/mL (≈ 266 µM) | > 100 µg/mL | 1.1 | < 0.6 | – | – | – | –
12 | Nc1ccc(-c2ccccc2O)cc1 | 31 µg/mL (≈ 167 µM) | 27.3 µg/mL (≈ 147 µM) | 52 µg/mL (≈ 281 µM) | 1.2 | 0.6 | – | – | – | –
13 | Nc1ccccc1-c1cccc(O)c1 | 10.5 µg/mL (≈ 56.7 µM) | 9.2 µg/mL (≈ 49.7 µM) | 16 µg/mL (≈ 86.4 µM) | 1.1 | 0.7 | 48% | 54% | 77% | 38%
14 | COc1ccc(-c2ccc(N)cc2)cc1OC | 23 µg/mL (≈ 100 µM) | 2 µg/mL (≈ 8.72 µM) | 5.5 µg/mL (≈ 24 µM) | 12 | 4 | 48% | 48% | 100% | 92%
15 | COc1ccccc1-c1ccc(O)cc1 | 44 µg/mL (≈ 220 µM) | 49 µg/mL (≈ 245 µM) | 55 µg/mL (≈ 275 µM) | 0.9 | 0.8 | – | – | – | –
16 | COc1ccc(-c2ccccc2O)cc1 | 44 µg/mL (≈ 220 µM) | 47 µg/mL (≈ 235 µM) | 42 µg/mL (≈ 210 µM) | 0.9 | 1 | – | – | – | –
17 | Nc1cccc(-c2cccc(O)c2)c1 | 50.1 µg/mL (≈ 270 µM) | 54 µg/mL (≈ 292 µM) | 99 µg/mL (≈ 534 µM) | 0.9 | 0.5 | – | – | – | –
18 | COc1ccc(-c2cccc(O)c2)c(OC)c1 | 28 µg/mL (≈ 122 µM) | 54 µg/mL (≈ 235 µM) | 50.2 µg/mL (≈ 218 µM) | 0.5 | 0.6 | – | – | – | –

Row | SMILES | IC50 (HEK293) | IC50 (HT-29 [1]) | IC50 (MCF7) | selectivity ratio [2] | selectivity ratio [3] | Activity (HT-29 [4]) | Activity (HT-29 [5]) | Activity (HT-29 [6]) | Activity (HT-29 [7])
19 | COc1ccc(-c2cccc(O)c2)cc1 | 14.6 µg/mL (≈ 72.9 µM) | 72 µg/mL (≈ 360 µM) | 48 µg/mL (≈ 240 µM) | 0.2 | 0.3 | – | – | – | –
20 | COc1ccccc1-c1ccccc1 | 52 µg/mL (≈ 282 µM) | 51 µg/mL (≈ 277 µM) | 1.6 µg/mL (≈ 8.68 µM) | 1 | 33 | – | – | – | –
21 | COc1ccc(-c2ccccc2)cc1 | 17 µg/mL (≈ 92.3 µM) | 45 µg/mL (≈ 244 µM) | > 100 µg/mL | 0.4 | < 0.2 | – | – | – | –
22 | COc1ccc(-c2cccc(N)c2)c(OC)c1 | 29.2 µg/mL (≈ 127 µM) | 49 µg/mL (≈ 214 µM) | > 100 µg/mL | 0.6 | < 0.3 | – | – | – | –
23 | COc1ccc(-c2ccccc2O)cc1OC | 23 µg/mL (≈ 99.9 µM) | > 100 µg/mL | 55 µg/mL (≈ 239 µM) | < 0.2 | 0.4 | – | – | – | –
24 | Nc1cccc(-c2ccccc2O)c1 | 47 µg/mL (≈ 254 µM) | 49 µg/mL (≈ 265 µM) | 28 µg/mL (≈ 151 µM) | 1 | 1.7 | – | – | – | –
25 | COc1cccc(-c2ccccc2O)c1 | 39 µg/mL (≈ 195 µM) | 35 µg/mL (≈ 175 µM) | 43 µg/mL (≈ 215 µM) | 1.1 | 0.9 | – | – | – | –
26 | COc1ccc(-c2ccc(O)cc2)cc1 | 2 µg/mL (≈ 9.99 µM) | > 100 µg/mL | 53 µg/mL (≈ 265 µM) | < 0.1 | < 0.1 | – | – | – | –
27 | Oc1ccccc1-c1ccccc1 [2-PHENYLPHENOL] | 31.4 µg/mL (≈ 184 µM) | 55 µg/mL (≈ 323 µM) | 51 µg/mL (≈ 300 µM) | 0.6 | 0.6 | – | – | – | –
28 | Nc1cccc(-c2ccccc2)c1 | 54 µg/mL (≈ 319 µM) | 42 µg/mL (≈ 248 µM) | 60 µg/mL (≈ 355 µM) | 1.3 | 0.9 | – | – | – | –
29 | Nc1ccc(-c2ccccc2)cc1 [BIPHENYL-4-AMINE] | > 100 µg/mL | > 100 µg/mL | 1.4 µg/mL (≈ 8.27 µM) | – | > 69 | – | – | – | –
30 | COc1ccc(-c2ccccc2)c(OC)c1 | 27 µg/mL (≈ 126 µM) | 55.2 µg/mL (≈ 258 µM) | > 100 µg/mL | 0.5 | < 0.3 | – | – | – | –
31 | COc1ccccc1-c1ccccc1O | 54 µg/mL (≈ 270 µM) | 2.7 µg/mL (≈ 13.5 µM) | > 100 µg/mL | 20 | < 0.5 | 33% | 17% | 3% | 6%
32 | Nc1ccccc1-c1ccc(O)cc1 | 50 µg/mL (≈ 270 µM) | 51 µg/mL (≈ 275 µM) | 44.3 µg/mL (≈ 239 µM) | 1 | 1.1 | – | – | – | –
33 | COc1ccc(-c2cccc(N)c2)cc1OC | 20 µg/mL (≈ 87.2 µM) | 4 µg/mL (≈ 17.4 µM) | > 100 µg/mL | 5 | < 0.2 | 42% | 57% | 90% | 40%
34 | COc1ccc(-c2ccc(N)cc2)c(OC)c1 | 22 µg/mL (≈ 96 µM) | 2.2 µg/mL (≈ 9.6 µM) | > 100 µg/mL | 10 | < 0.2 | 51% | 41% | 40% | 39%
35 | Oc1cccc(-c2ccccc2O)c1 | > 100 µg/mL | 5.2 µg/mL (≈ 27.9 µM) | > 100 µg/mL | > 19 | – | 57% | 10% | 18% | 87%
36 | Oc1ccc(-c2ccccc2O)cc1 | 54 µg/mL (≈ 290 µM) | 1.4 µg/mL (≈ 7.52 µM) | > 100 µg/mL | 38 | – | 62% | 16% | 11% | 11%

Source: ChEMBL document CHEMBL3813664, “Synthesis and evaluation of biphenyl derivatives as potential downregulators of VEGF protein secretion and telomerase-related gene expressions” (Bioorg Med Chem, 2016)
